Laboratory results published in PubChem BioAssay (NCI).
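GI50 marks 50% less growth. TGI: concentration producing complete growth inhibition.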

Assays:
Assay in all cases: NCI tumour cell line growth inhibition, 384-well format
SF-268 CNS = system: SF-268 CNS
SNB-19 CNS = system: SNB-19 CNS
M14 melanoma = system: M14 melanoma
HCC-2998 colon = system: HCC-2998 colon
OVCAR-3 ovarian = system: OVCAR-3 ovarian
TK-10 renal = system: TK-10 renal
MOLT-4 leukemia = system: MOLT-4 leukemia
HCT-116 colon = system: HCT-116 colon
UO-31 renal = system: UO-31 renal
OVCAR-8 ovarian = system: OVCAR-8 ovarian
BT-549 breast = system: BT-549 breast
786-0 renal = system: 786-0 renal
COLO 205 colon = system: COLO 205 colon
MALME-3M melanoma = system: MALME-3M melanoma
K-562 leukemia = system: K-562 leukemia
SK-MEL-2 melanoma = system: SK-MEL-2 melanoma
KM12 colon = system: KM12 colon
NCI-H522 lung = system: NCI-H522 lung
NCI/ADR-RES ovarian = system: NCI/ADR-RES ovarian
HT29 colon = system: HT29 colon
SF-539 CNS = system: SF-539 CNS
MDA-MB-468 breast = system: MDA-MB-468 breast
LOX IMVI melanoma = system: LOX IMVI melanoma
HOP-92 NSCLC = system: HOP-92 NSCLC
MCF7 breast = system: MCF7 breast
OVCAR-5 ovarian = system: OVCAR-5 ovarian
A549 NSCLC = system: A549 NSCLC
CCRF-CEM leukemia = system: CCRF-CEM leukemia
NCI-H226 lung = system: NCI-H226 lung
SN12C renal = system: SN12C renal
HOP-62 NSCLC = system: HOP-62 NSCLC
T-47D breast = system: T-47D breast
RXF 393 renal = system: RXF 393 renal
A498 renal = system: A498 renal
UACC-62 melanoma = system: UACC-62 melanoma
PC-3 prostate = system: PC-3 prostate
MDA-MB-435 melanoma = system: MDA-MB-435 melanoma
SR leukemia = system: SR leukemia
SK-MEL-5 melanoma = system: SK-MEL-5 melanoma
ACHN renal = system: ACHN renal
NCI-H23 lung = system: NCI-H23 lung
SW-620 colon = system: SW-620 colon
DU-145 prostate = system: DU-145 prostate
RPMI-8226 leukemia = system: RPMI-8226 leukemia
IGROV1 ovarian = system: IGROV1 ovarian
UACC-257 melanoma = system: UACC-257 melanoma
NCI-H322M lung = system: NCI-H322M lung
OVCAR-4 ovarian = system: OVCAR-4 ovarian
NCI-H460 NSCLC = system: NCI-H460 NSCLC
U251 glioblastoma = system: U251 glioblastoma
HCT-15 colon = system: HCT-15 colon
CAKI-1 renal = system: CAKI-1 renal
SK-MEL-28 melanoma = system: SK-MEL-28 melanoma
HL-60(TB) leukemia = system: HL-60(TB) leukemia

Compound: CN[C@@H](C)C(=O)N[C@H](C(=O)N1CCC[C@H]1C(=O)N[C@H]1c2ccccc2C[C@H]1OCC#CC#CCO[C@@H]1Cc2ccccc2[C@@H]1NC(=O)[C@@H]1CCCN1C(=O)[C@@H](NC(=O)[C@H](C)NC)C1CCCCC1)C1CCCCC1
- GI50 (SF-268 CNS): 1.67 µM
- TGI (SF-268 CNS): 3.04 µM
- GI50 (SNB-19 CNS): 1.56 µM
- TGI (SNB-19 CNS): 2.97 µM
- GI50 (M14 melanoma): 1.9 µM
- TGI (M14 melanoma): 3.49 µM
- GI50 (HCC-2998 colon): 1.62 µM
- TGI (HCC-2998 colon): 2.98 µM
- GI50 (OVCAR-3 ovarian): 1.32 µM
- TGI (OVCAR-3 ovarian): 2.64 µM
- GI50 (TK-10 renal): 14 µM
- TGI (TK-10 renal): 27 µM
- GI50 (MOLT-4 leukemia): 1.48 µM
- TGI (MOLT-4 leukemia): 2.8 µM
- GI50 (HCT-116 colon): 1.67 µM
- TGI (HCT-116 colon): 3.12 µM
- GI50 (UO-31 renal): 19.5 µM
- TGI (UO-31 renal): 33.7 µM
- GI50 (OVCAR-8 ovarian): 0.135 µM
- TGI (OVCAR-8 ovarian): 2.22 µM
- GI50 (BT-549 breast): < 0.01 µM
- TGI (BT-549 breast): 1.92 µM
- GI50 ([…]-0 renal): 2.92 µM
- TGI (786-0 renal): 11.4 µM
- GI50 (COLO 205 colon): 1.37 µM
- TGI (COLO 205 colon): 2.66 µM
- GI50 (MALME-3M melanoma): < 0.01 µM
- TGI (MALME-3M melanoma): < 0.01 µM
- GI50 (K-562 leukemia): 2.32 µM
- TGI (K-562 leukemia): 6.27 µM
- GI50 (SK-MEL-2 melanoma): < 0.01 µM
- TGI (SK-MEL-2 melanoma): < 0.01 µM
- GI50 (KM12 colon): 1.65 µM
- TGI (KM12 colon): 3.03 µM
- GI50 (NCI-H522 lung): < 0.01 µM
- TGI (NCI-H522 lung): 1.02 µM
- GI50 (NCI/ADR-RES ovarian): 4.65 µM
- TGI (NCI/ADR-RES ovarian): 35.5 µM
- GI50 (HT29 colon): 1.66 µM
- TGI (HT29 colon): 3.1 µM
- GI50 (SF-539 CNS): 1.64 µM
- TGI (SF-539 CNS): 3.01 µM
- GI50 (MDA-MB-468 breast): < 0.01 µM
- TGI (MDA-MB-468 breast): < 0.01 µM
- GI50 (LOX IMVI melanoma): 2.12 µM
- TGI (LOX IMVI melanoma): 3.56 µM
- GI50 (HOP-92 NSCLC): < 0.01 µM
- TGI (HOP-92 NSCLC): 0.641 µM
- GI50 (MCF7 breast): 1.33 µM
- TGI (MCF7 breast): 2.62 µM
- GI50 (OVCAR-5 ovarian): 12.3 µM
- TGI (OVCAR-5 ovarian): 24.8 µM
- GI50 (A549 NSCLC): 5.33 µM
- TGI (A549 NSCLC): 18.6 µM
- GI50 (CCRF-CEM leukemia): < 0.01 µM
- TGI (CCRF-CEM leukemia): 1.31 µM
- GI50 (NCI-H226 lung): 6.96 µM
- TGI (NCI-H226 lung): 19.8 µM
- GI50 (SN12C renal): 2.14 µM
- TGI (SN12C renal): 3.61 µM
- GI50 (HOP-62 NSCLC): 0.0349 µM
- TGI (HOP-62 NSCLC): 0.441 µM
- GI50 (T-47D breast): 1.73 µM
- TGI (T-47D breast): 3.17 µM
- GI50 (RXF 393 renal): < 0.01 µM
- TGI (RXF 393 renal): < 0.01 µM
- GI50 (A498 renal): 13.5 µM
- TGI (A498 renal): 26.3 µM
- GI50 (UACC-62 melanoma): 1.65 µM
- TGI (UACC-62 melanoma): 3.01 µM
- GI50 (PC-3 prostate): 1.81 µM
- TGI (PC-3 prostate): 3.85 µM
- GI50 (MDA-MB-435 melanoma): < 0.01 µM
- TGI (MDA-MB-435 melanoma): 2.03 µM
- GI50 (SR leukemia): 0.0188 µM
- TGI (SR leukemia): 1.05 µM
- GI50 (SK-MEL-5 melanoma): < 0.01 µM
- TGI (SK-MEL-5 melanoma): 0.0446 µM
- GI50 (ACHN renal): 15.3 µM
- TGI (ACHN renal): 28.6 µM
- GI50 (NCI-H23 lung): < 0.01 µM
- TGI (NCI-H23 lung): 0.0576 µM
- GI50 (SW-620 colon): 2.16 µM
- TGI (SW-620 colon): 4.3 µM
- GI50 (DU-145 prostate): 1.04 µM
- TGI (DU-145 prostate): 2.53 µM
- GI50 (RPMI-8226 leukemia): < 0.01 µM
- TGI (RPMI-8226 leukemia): 1.1 µM
- GI50 (IGROV1 ovarian): 1.78 µM
- TGI (IGROV1 ovarian): 3.46 µM
- GI50 (UACC-257 melanoma): 1.52 µM
- TGI (UACC-257 melanoma): 2.85 µM
- GI50 (NCI-H322M lung): 2.25 µM
- TGI (NCI-H322M lung): 5.31 µM
- GI50 (OVCAR-4 ovarian): < 0.01 µM
- TGI (OVCAR-4 ovarian): < 0.01 µM
- GI50 (NCI-H460 NSCLC): 1.77 µM
- TGI (NCI-H460 NSCLC): 3.19 µM
- GI50 (U251 glioblastoma): 1.49 µM
- TGI (U251 glioblastoma): 2.82 µM
- GI50 (HCT-15 colon): 18 µM
- TGI (HCT-15 colon): 31.9 µM
- GI50 (CAKI-1 renal): 15.1 µM
- TGI (CAKI-1 renal): 28.4 µM
- GI50 (SK-MEL-28 melanoma): 1.37 µM
- TGI (SK-MEL-28 melanoma): 2.67 µM
- GI50 (HL-60(TB) leukemia): < 0.01 µM
- TGI (HL-60(TB) leukemia): < 0.01 µM
